Here are results for 47 molecules from patent publication US8003649B2 (AstraZeneca AB, priority 2007, dated 2011).

The target of this assay is T1, Androgen Receptor (AR) (Homo sapiens, UniProt P10275, T878A).
T1 construct: cell based immuno-fluorescence assay using the LNCaP prostate epithelial cell line; endogenous in cells; host or cells: LNCaP clone FGC (ATCC CRL-1740)
T1 sequence (P10275 1-920 T878A): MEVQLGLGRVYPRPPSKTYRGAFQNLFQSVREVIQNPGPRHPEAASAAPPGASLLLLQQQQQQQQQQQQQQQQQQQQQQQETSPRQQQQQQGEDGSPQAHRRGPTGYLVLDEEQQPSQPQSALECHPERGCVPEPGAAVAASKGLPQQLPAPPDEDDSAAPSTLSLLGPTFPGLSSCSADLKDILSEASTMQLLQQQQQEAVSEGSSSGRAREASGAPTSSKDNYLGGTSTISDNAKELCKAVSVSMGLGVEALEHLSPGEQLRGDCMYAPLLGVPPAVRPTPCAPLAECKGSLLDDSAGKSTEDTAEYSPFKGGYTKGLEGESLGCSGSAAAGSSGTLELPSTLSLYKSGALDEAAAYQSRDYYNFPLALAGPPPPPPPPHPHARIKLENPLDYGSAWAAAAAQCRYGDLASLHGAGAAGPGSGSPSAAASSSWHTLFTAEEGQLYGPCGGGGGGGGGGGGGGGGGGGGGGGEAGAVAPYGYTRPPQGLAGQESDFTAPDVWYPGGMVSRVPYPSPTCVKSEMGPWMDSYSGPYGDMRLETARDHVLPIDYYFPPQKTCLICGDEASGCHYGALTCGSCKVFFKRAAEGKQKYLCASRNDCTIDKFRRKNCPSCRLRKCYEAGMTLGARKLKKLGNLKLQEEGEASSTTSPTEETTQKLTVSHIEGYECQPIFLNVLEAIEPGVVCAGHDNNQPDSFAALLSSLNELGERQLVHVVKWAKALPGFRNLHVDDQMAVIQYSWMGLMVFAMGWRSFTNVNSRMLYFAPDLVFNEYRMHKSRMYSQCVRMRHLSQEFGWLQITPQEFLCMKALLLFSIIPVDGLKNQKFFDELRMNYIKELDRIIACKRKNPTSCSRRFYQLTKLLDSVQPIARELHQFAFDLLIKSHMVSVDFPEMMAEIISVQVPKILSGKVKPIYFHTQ
Put plainly: LNCaP Androgen Receptor Down-regulation Cell Assay (immunofluorescence end point). In kind it is cell-based. To be noted: LNCaP prostate carcinoma cells, compound incubation 20-22 hours, 50% reduction of the AR signal; read-out: Androgen Receptor Down-regulation Assay (a) IC50/μM. The method in brief: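 AR loss reported as IC50 from curve fits of fluorescence dose-response data, with AR immunostained and read by laser-scanning cytometry. Compound exposure was 20-22 h at 37° C in LNCaP cells grown in 5% charcoal-stripped FBS and plated overnight beforehand.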
On to `C[C@@H]1CN(Cc2cc(F)cc(F)c2)CCN1c1ccc2nnc(C(F)(F)F)n2n1` [Example 602], for which the DC50 was found to be 1.6 µM. As for `C[C@@H]1CN(Cc2ccc(F)cc2)CCN1c1ccc2nnc(C(F)(F)F)n2n1` [Example 603], the DC50 worked out at 3.5 µM. Under `C[C@@H]1CN(Cc2ccc(F)c(C#N)c2)CCN1c1ccc2nnc(C(F)(F)F)n2n1` [Example 604] stands 1.7 µM; under `FC(F)(F)c1nnc2ccc(N3CC=C(c4cccnc4)CC3)nn12` [Example 605, 1′-[3-(trifluoromethyl)[1,2,4]triazolo[4,3-b]pyridazin-6-yl]-1′,2′,3′,6′-tetrahydro-3,4′-bipyridine], 5 µM; under `Fc1cnccc1C1=CCN(c2ccc3nnc(C(F)(F)F)n3n2)CC1` [Example 606], 2.7 µM. On to `Fc1cncc(C2=CCN(c3ccc4nnc(C(F)(F)F)n4n3)CC2)c1` [Example 607], for which the DC50 came to 7.4 µM. For `CCOC(=O)c1cncc(C2=CCN(c3ccc4nnc(C(F)(F)F)n4n3)CC2)c1` [Example 608] the value was 2.7 µM. Consider `COc1ncc(C2=CCN(c3ccc4nnc(C(F)(F)F)n4n3)CC2)cc1F` [Example 609], for which the DC50 is 6.6 µM. With `FC(F)(F)c1nnc2ccc(N3CCC(c4cccnc4)CC3)nn12` [Example 610, 6-(4-pyridin-3-ylpiperidin-1-yl)-3-(trifluoromethyl)[1,2,4]triazolo[4,3-b]pyridazine], the DC50 worked out at 3.2 µM. `Fc1cnccc1C1CCN(c2ccc3nnc(C(F)(F)F)n3n2)CC1` [Example 611]: the DC50 worked out at 1.6 µM. On to `Fc1cncc(C2CCN(c3ccc4nnc(C(F)(F)F)n4n3)CC2)c1` [Example 612], for which the DC50 was more than 13 µM. As for `COc1ncc(C2CCN(c3ccc4nnc(C(F)(F)F)n4n3)CC2)cc1F` [Example 614], the DC50 was more than 12 µM. Under `Nc1ccc(C2CCN(c3ccc4nnc(C(F)(F)F)n4n3)CC2)cc1` [Example 615, 4-[1-[3-(trifluoromethyl)[1,2,4]triazolo[4,3-b]pyridazin-6-yl]piperidin-4-yl]aniline] stands 0.88 µM; under `Nc1cccc(C2CCN(c3ccc4nnc(C(F)(F)F)n4n3)CC2)c1` [Example 616, 3-[1-[3-(trifluoromethyl)[1,2,4]triazolo[4,3-b]pyridazin-6-yl]piperidin-4-yl]aniline], 1.7 µM; under `FC(F)(F)c1nnc2ccc(N3CCC(Oc4cncc(Cl)c4)CC3)nn12` [Example 617], 4.3 µM. `FC(F)(F)c1nnc2ccc(N3CCC(Oc4ccc(Cl)cn4)CC3)nn12` [Example 618]: the DC50 is more than 4 µM. As to `FC(F)(F)c1nnc2ccc(N3CCC(Oc4ccncn4)CC3)nn12` [Example 619], the DC50 came out at 4.5 µM. As to `FC(F)(F)c1ccnc(OC2CCN(c3ccc4nnc(C(F)(F)F)n4n3)CC2)c1` [Example 621], the DC50 came out at 2.3 µM. In the case of `Cc1ccnc(OC2CCN(c3ccc4nnc(C(F)(F)F)n4n3)CC2)n1` [Example 622], the DC50 came out at 7.4 µM. On to `N#Cc1cccc(OC2CCN(c3ccc4nnc(C(F)(F)F)n4n3)CC2)c1` [Example 623], for which the DC50 came to 0.89 µM.

For `Fc1ccc(OC2CCN(c3ccc4nnc(C(F)(F)F)n4n3)CC2)cc1` [Example 625], the DC50 came to 1.4 µM. As for `FC(F)(F)c1cccc(OC2CCN(c3ccc4nnc(C(F)(F)F)n4n3)CC2)c1` [Example 626], the DC50 is 1.1 µM. Regarding `N#Cc1ccc(OC2CCN(c3ccc4nnc(C(F)(F)F)n4n3)CC2)cc1` [Example 627], the DC50 was found to be 1.7 µM. For `N#Cc1ccc(OC2CCN(c3ccc4nnc(C(F)(F)F)n4n3)CC2)nc1` [Example 628] the value was 2.7 µM; for `CN(CCO)C(=O)c1ccc(C2CCN(c3ccc4nnc(C(F)(F)F)n4n3)CC2)cc1` [Example 630], 2.4 µM; for `O=C(NCCN1CCCC1)c1ccc(C2CCN(c3ccc4nnc(C(F)(F)F)n4n3)CC2)cc1` [Example 631], 1.1 µM. Take `COCCNC(=O)c1ccc(C2CCN(c3ccc4nnc(C(F)(F)F)n4n3)CC2)cc1` [Example 633]: the DC50 was 1.9 µM.

In the case of `CN(C)C(=O)c1ccc(C2CCN(c3ccc4nnc(C(F)(F)F)n4n3)CC2)cc1` [Example 634], the DC50 was determined as 1.1 µM. For the molecule `O=C(c1ccc(C2CCN(c3ccc4nnc(C(F)(F)F)n4n3)CC2)cc1)N1CCOCC1` [Example 635], the DC50 stood at 2.9 µM. For `O=C(c1ccc(C2CCN(c3ccc4nnc(C(F)(F)F)n4n3)CC2)cc1)N1CCNCC1` [Example 636], the DC50 was determined as 20 µM. Consider `CCNC(=O)c1ccc(C2CCN(c3ccc4nnc(C(F)(F)F)n4n3)CC2)cc1` [Example 637], for which the DC50 came to 1.8 µM. On to `O=C(NCCN1CCOCC1)c1ccc(C2CCN(c3ccc4nnc(C(F)(F)F)n4n3)CC2)cc1` [Example 638, N-(2-morpholin-4-ylethyl)-4-[1-[3-(trifluoromethyl)[1,2,4]triazolo[4,3-b]pyridazin-6-yl]piperidin-4-yl]benzamide], for which the DC50 amounted to 0.9 µM. For `Cc1cc(CNC(=O)c2ccc(C3CCN(c4ccc5nnc(C(F)(F)F)n5n4)CC3)cc2)no1` [Example 640], the DC50 amounted to 0.92 µM. Turning to `CN1CCC(NC(=O)c2ccc(C3CCN(c4ccc5nnc(C(F)(F)F)n5n4)CC3)cc2)CC1` [Example 641], the DC50 amounted to 1.4 µM. For `CN1CCN(CCNC(=O)c2ccc(C3CCN(c4ccc5nnc(C(F)(F)F)n5n4)CC3)cc2)CC1` [Example 642] the value was 1.4 µM; for `CN(CCO)C(=O)c1cccc(C2CCN(c3ccc4nnc(C(F)(F)F)n4n3)CC2)c1` [Example 643], 6 µM.

For the molecule `O=C(NCCN1CCCC1)c1cccc(C2CCN(c3ccc4nnc(C(F)(F)F)n4n3)CC2)c1` [Example 644], the DC50 was 1.5 µM. For `CN1CCN(C(=O)c2cccc(C3CCN(c4ccc5nnc(C(F)(F)F)n5n4)CC3)c2)CC1` [Example 645] the value was 2.3 µM. Under `O=C(c1cccc(C2CCN(c3ccc4nnc(C(F)(F)F)n4n3)CC2)c1)N1CCNCC1` [Example 646] stands 6.1 µM; under `CN(C)C(=O)c1cccc(C2CCN(c3ccc4nnc(C(F)(F)F)n4n3)CC2)c1` [Example 647], 1.7 µM. For `O=C(c1cccc(C2CCN(c3ccc4nnc(C(F)(F)F)n4n3)CC2)c1)N1CCOCC1` [Example 648] the value was 2.1 µM; for `CNC(=O)c1cccc(C2CCN(c3ccc4nnc(C(F)(F)F)n4n3)CC2)c1` [Example 649], 2.3 µM. With `CN1CCC(NC(=O)c2cccc(C3CCN(c4ccc5nnc(C(F)(F)F)n5n4)CC3)c2)CC1` [Example 651], the DC50 was found to be 1.9 µM. Consider `FC(F)(F)c1ccccc1OC1CCN(c2ccc3nnc(C(F)(F)F)n3n2)CC1` [Example 653], for which the DC50 turned out to be 1 µM. Consider `N#Cc1ccccc1OC1CCN(c2ccc3nnc(C(F)(F)F)n3n2)CC1` [Example 654], for which the DC50 turned out to be 2.6 µM. In the case of `CC(=O)Nc1cccc(C2CCN(c3ccc4nnc(C(F)(F)F)n4n3)CC2)c1` [Example 655, N-[3-[1-[3-(trifluoromethyl)[1,2,4]triazolo[4,3-b]pyridazin-6-yl]piperidin-4-yl]phenyl]acetamide], the DC50 is 1.1 µM.

In the case of `CN1CCN(CCCC(=O)Nc2cccc(C3CCN(c4ccc5nnc(C(F)(F)F)n5n4)CC3)c2)CC1` [Example 659, 4-(4-methylpiperazin-1-yl)-N-[3-[1-[3-(trifluoromethyl)-[1,2,4]triazolo[4,3-b]pyridazin-6-yl]piperidin-4-yl]phenyl]butanamide], the DC50 was 1 µM.
